Patent publication US7601754B2, “Flavonoid compounds as therapeutic antioxidants” (Antoxis Limited, priority 2002, dated 2009)
Several values for one entry are separate records, joined by “and”; a condition that tells them apart may be missing. Equal entries are not always repeated.

How the values were obtained:
[1] = Kinetic measurements: stopped-flow ESR, reduction of galvinoxyl radical; format: physicochemical; conditions: for Second order rate constants (k2) for the reduction of galvinoxyl radical / reactivity with galvinoxyl (in words): ethanol; for Second order rate constants (k2) for the reduction of galvinoxyl radical: 20° C.±2° C., flavonoid 0.2 mM + galvinoxyl 0.2 mM, unit printed only in b437; for reactivity with galvinoxyl (in words): kinetics of reduction; for decrease in rate of reaction with galvinoxyl relative to quercetin: fold decrease, versus quercetin
Protocol: (§1) Within a biological system where a number of polyphenols may be present at similar concentrations, antioxidant efficacy may be predominantly governed by reaction kinetics rather than stoichiornetry. Consequently, the antioxidant potential of thirteen flavonoids and vitamin E were assessed and their kinetic and stochiometric reduction of a synthetic radical using stopped-flow electron spin resonance (ESR) spectroscopy has been compared. The radical used was galvinoxyl (Galv-O°), (2,6-di-tert-butyl-α-(3,5-di-tert-butyl-4-oxo-2,5-cyclohexadien-1-ylidene)-p-tolyloxy) shown below:
Galv-O°+Phenol-OH≈Galv-OH+phenol-O°
The process is governed by the O—H bond dissociation enthalpy of the donor.
Ethanolic solutions of flavonoid (0.2 mM) and galvinoxyl (0.2 mM) were de-oxygenated under a stream of nitrogen gas. Aliquots (6 ml) were transferred to Hamilton gas-tight syringes (10 ml) coupled to a pneumatic ram and connected to a two-stream ESR quartz flow-cell. In situ reaction at 20° C.±2° C. between the flavonoid and galvinoxyl was initiated by rapidly evacuating the syringes. […] Decay curves were obtained by operating in timesweep mode with the static field set at the resonance maximum of the galvinoxyl signal.

[2] = Stoichiometric measurements: ESR, reduction of excess galvinoxyl radical; format: physicochemical; conditions: galvinoxyl radicals reduced per molecule, ethanol, flavonoid 0.1 mM + galvinoxyl 0.5 mM, 5 minutes from mixing
Protocol: as §1
Ethanolic solutions of flavonoids (0.1 mM) were prepared. Aliquots (3 ml) of an ethanolic galvinoxyl solution (0.5 mM) were mixed with an equal volume of flavonoid solution then transferred to an ESR quartz cell. The spectra and reaction stoichiometry were evaluated. In brief, the spectra of the unreacted galvinoxyl were obtained 5 minutes from mixing, by which time equilibration was complete. The galvinoxyl concentrations remaining were calculated by double integration of the signal and comparing with the control experiment where ethanol was added to the galvinoxyl solution instead of flavonoid solution.
The stoichiometry of the reaction of these compounds with the galvinoxyl free radical was determined by adding the flavonoid, or vitamin E, to an excess of the radical and allowing the reaction to proceed to the endpoint.

[3] = tested on: rat liver microsomes from vitamin E-deficient rats; experiment: Inhibition of TBARS production in rat liver microsomes from vitamin E-deficient rats; format: biochemical; conditions: for TBARS production (Mean): after 20 minutes incubation with Fe(II)-ADP/ascorbate, normalised to a tocopherol reading of 20, 30 minutes pre-incubation, higher reading = lower protection; for membrane protection against TBARS production (in words): over the 20 minute oxidation period
Protocol: Inhibition of TBARS production in rat liver microsomes from vitamin E-deficient rats by pre-incubation with target antioxidant and related compounds. Microsomes are subcellular fractions containing membrane fragments. In vitamin E-deficient rats, microsomes are especially prone to oxidative free radical damage. This can be quantified in terms of the production of thiobarbituric acid reactive substances (TBARS) which result from radical-mediated destruction of the polyunsaturated fatty acid constituents. Consequently, this is a useful biological model to determine the efficacy of phytochemicals as antioxidant membrane protectants. Vitamin E-deficient microsomal suspensions were incubated for 30 minutes with one of myricetin, sample A, sample B, sample C (as shown below) or d-alpha-tocopherol, or with a compound 9c, 9d, 9e, 9e*, 9f, 9g, 9g*, 9h, 9i* or 9j (prepared as described above in Examples 1 to 10). […] TBARS production was then measured by HPLC.

[4] = Solubility in octanol; format: physicochemical

Molecule | Second order rate constants (k2) for the reduction of galvinoxyl radical [1] [mol^−1 dm^3 s^−1] | Reaction Stoichiometry for the reduction of galvinoxyl radical [2] | TBARS production (Mean) [3] | other results
O=c1c(O)c(-c2ccc(O)c(O)c2)oc2cc(O)cc(O)c12 [Quercetin] | 2383 ± 258 | 3.27 ± 0.04 |  | change of rate constant compared with luteolin (in words) ([1]; versus luteolin): doubling; Reaction Stoichiometry for the reduction of galvinoxyl radical ([2]; listed as quercetin): 3.3
CCc1ccc2c(=O)c(O)c(-c3cc(O)c(O)c(O)c3)oc2c1 [compound 9c, 7-Ethyl-3-hydroxy-2-(3,4,5-trihydroxy-phenyl)-chromen-4-one] |  |  | 117.461 | 
CCCCCCCCCCc1ccc2oc(-c3cc(O)c(O)c(O)c3)c(O)c(=O)c2c1 [compound 11g, 6-Decyl-3-hydroxy-2-(3,4,5-trihydroxy-phenyl)-chromen-4-one] |  |  | 81.82 | 
O=c1c(O)c(-c2ccc(O)c(O)c2)oc2cc(O)ccc12 [Fisetin] | 1623 ± 199 | 3.68 ± 0.03 |  | 
O=c1c(O)c(-c2cc(O)c(O)c(O)c2)oc2cc(O)ccc12 [Control A] |  |  | 158.348 | 
COc1cc(-c2oc3cc(O)cc(O)c3c(=O)c2O)cc(OC)c1OC [Tri-Ome-Myricetin, myricetin-3′,4′,5′-trimethylether] | 74 ± 14 | 1.06 ± 0.02 |  | 
O=c1cc(-c2ccc(O)c(O)c2)oc2cc(O)cc(O)c12 [Luteolin] | 1212 ± 45 | 3.24 ± 0.01 |  | 
O=c1c(O)c(-c2ccc(O)c(O)c2O)oc2ccccc12 [Control D] |  |  | 172.0899 | 
Catechin | 1574 ± 79 | 2.96 ± 0.01 |  | 
CCCCc1ccc2c(=O)c(O)c(-c3cc(O)c(O)c(O)c3)oc2c1 [9d, 7-Butyl-3-hydroxy-2-(3,4,5-trihydroxy-phenyl)-chromen-4-one] |  |  | 121.743 | 
CCCCCCCCCCCCc1ccc2c(=O)c(O)c(-c3cc(O)c(O)c(O)c3)oc2c1 [compound 9h, 3-Hydroxy-2-(3,4,5-trihydroxy-phenyl)-7-dodecyl-chromen-4-one] |  |  | 62.1021 | 
CCCCCCCCCCCCCCCCCCc1ccc2c(=O)c(O)c(-c3cc(O)c(O)c(O)c3)oc2c1 [compound 9j, 3-Hydroxy-7-octadecyl-2-(3,4,5-trihydroxy-phenyl)-chromen-4-one] |  |  | 107.849 | 
CCCCCCCCCCc1ccc2c(=O)c(O)c(-c3cc(O)c(O)cc3O)oc2c1 [compound 13g, 3,2′,4′,5′-tetrahydroxy-7-decyl-flavone] |  |  | 20.1401 | membrane protection against TBARS production (in words) [3]: good membrane protection
O=c1c(O)c(-c2ccccc2O)oc2cc(O)cc(O)c12 [Datiscetin] | 22 ± 2 | 1.74 ± 0.02 |  | Second order rate constants (k2) for the reduction of galvinoxyl radical ([1]; listed as datiscetin): 22 mol^−1 dm^3 s^−1; reduction in rate constant relative to kaempferol ([1]; fold reduction, versus kaempferol): 56 fold; Reaction Stoichiometry for the reduction of galvinoxyl radical ([2]; listed as datiscetin): ~1.8
O=c1c(O)c(-c2cc(O)c(O)c(O)c2)oc2cc(O)cc(O)c12 [Myricetin] | 14463 ± 1767 | 4.08 ± 0.01 | 147.6 and 147.6306 | membrane protection against TBARS production (in words) [3]: almost no protection; reactivity with galvinoxyl (in words) [1]: fastest; Reaction Stoichiometry for the reduction of galvinoxyl radical ([2]; listed as myricetin): 4.1
O=C1c2c(O)cc(O)cc2O[C@H](c2ccc(O)c(O)c2)[C@H]1O (racemic) [Taxifolin] | 337 ± 32 | 2.82 ± 0.05 |  | decrease in rate of reaction with galvinoxyl relative to quercetin [1]: 7 fold; reduction in rate compared with catechin ([1]; fold reduction, versus catechin): 5 fold; Reaction Stoichiometry for the reduction of galvinoxyl radical ([2]; listed as taxifolin): 2.8
O=c1c(O)c(-c2ccccc2)oc2cc(O)cc(O)c12 [Galangin] | 18 ± 1 | 1.01 ± 0.03 |  | reactivity with galvinoxyl (in words) [1]: reacted only very slowly
O=c1c(O)c(-c2ccc(O)cc2O)oc2cc(O)cc(O)c12 [Morin] | 10134 ± 459 | 1.83 ± 0.01 |  | Second order rate constants (k2) for the reduction of galvinoxyl radical ([1]; listed as morin): 10134 mol^−1 dm^3 s^−1; reactivity with galvinoxyl (in words) [1]: fastest; increase in rate relative to kaempferol ([1]; fold increase, versus kaempferol): 8 fold; Reaction Stoichiometry for the reduction of galvinoxyl radical ([2]; listed as morin): 1.8
COc1ccc([C@@H]2CC(=O)c3c(O)cc(O)cc3O2)cc1O [Hesperitin] | 6 ± 0.5 | 0.20 ± 0.02 |  | reactivity with galvinoxyl (in words) [1]: little reactivity
COc1ccc(-c2oc3cc(O)cc(O)c3c(=O)c2O)cc1O [Tamarixetin] | 165 ± 20 | 1.14 ± 0.03 |  | decrease in rate of reaction with galvinoxyl relative to quercetin [1]: 15 fold
Cc1c(C)c2c(c(C)c1O)CC[C@@](C)(CCC[C@H](C)CCC[C@H](C)CCCC(C)C)O2 [Vitamin E, d-(2R,4′R,8′R)-α-Tocopherol] | 524 ± 48 | 2.14 ± 0.12 |  | TBARS production (Mean) ([3]; listed as da-toc): 19.9996 and 20
O=c1c(O)c(-c2cc(O)c(O)c(O)c2)oc2ccccc12 [Control B] |  |  | 236.525 and 236.5249 | membrane protection against TBARS production (in words) [3]: does not give rise to significant membrane protective effects; antioxidant activity by ESR (in words) ([1]; ESR, kinetic or stoichiometric not stated): retains potent antioxidant activity; solubility in octanol (in words) [4]: very soluble in octanol
CCCCCCCCCc1cccc2c(=O)c(O)c(-c3cc(O)c(O)cc3O)oc12 [compound 14] |  |  | 104.4307 | 
CCCCCCCCc1cc2c(=O)c(O)c(-c3cc(O)c(O)c(O)c3)oc2cc1CC [compound 12, 7-Ethyl-3-hydroxy-6-octyl-2-(3,4,5-trihydroxy-phenyl)-chromen-4-one] |  |  | 53.98 | 
CCCCCCCCc1ccc2c(=O)c(O)c(-c3cc(O)c(O)c(O)c3)oc2c1 [9f, 7-Octyl-3-hydroxy-2-(3,4,5-trihydroxy-phenyl)-chromen-4-one] |  |  | 46.1879 | 
CC(C)CCCC(C)CCCC(C)CCc1ccc2c(=O)c(O)c(-c3cc(O)c(O)c(O)c3)oc2c1 (stereo not shown) [compound 9i*, 3-Hydroxy-2-(3,4,5-trihydroxy-phenyl)-7-(3,7,11-trimethyl-dodecyl)-chromen-4-one] |  |  | 32.9769 | 
O=c1c(O)c(-c2cc(O)c(O)cc2O)oc2ccccc12 [Control C] |  |  | 186.6221 | 
